Measurements reported in ChEMBL document CHEMBL4196140, “Spiro-Phthalides and Isocoumarins Isolated from the Marine-Sponge-Derived Fungus Setosphaeria sp. SCSIO41009” (J Nat Prod, 2018).
The source made the active and inactive calls. No cut-off for these calls is given here.

Test system: Influenza A virus
Assay: Antiviral activity against Influenza A virus (A/Puerto Rico/8/34(H1N1)) harboring H274Y mutant infected in MDCK cells assessed as inhibition of virus-induced cytopathic effect after 48 hrs by MTT assay
Assay type: functional, organism-based
Conditions: A/Puerto Rico/8/1934(H1N1)

Row | SMILES | inhibition
1 | CC[C@H](O)[C@H]1C[C@H]2OC(=O)c3c(cc(OC)c(OC)c3O)[C@H]2O1 | inactive
2 | CCC[C@H]1C[C@H]2OC(=O)c3c(cc(OC)c(OC)c3O)[C@@H]2O1 | inactive
3 | COc1cc(=O)oc(C)c1CCCC(=O)O | inactive
4 | CCCC(=O)CC[C@@H]1OC(=O)c2c1cc(OC)c(OC)c2O | inactive
5 | COc1cc2c(c(O)c1OC)C(=O)O[C@@H]1C[C@H](CCC(=O)O)O[C@H]21 | inactive
6 | CCC(O)Cc1c(OC)cc(=O)oc1C (configuration not stated) | inactive
7 | COc1cc(=O)oc(C)c1CCC(C)O (configuration not stated) | inactive
8 | COCc1c(O)cc(C)c2c1Oc1c(C)cc(O)c(C)c1OC2=O | inactive
9 | CCCCOCc1c(O)cc(C)c2c1Oc1c(C)cc(O)c(C)c1OC2=O | inactive
10 | CCCCc1c(OC)cc(=O)oc1C | inactive
11 | CCC[C@@H]1C[C@H]2OC(=O)c3c(cc(O)c(OC)c3O)[C@@H]2O1 | inactive
12 | CCC[C@@H]1C[C@H]2OC(=O)c3c(cc(OC)c(OC)c3O)[C@@H]2O1 | inactive
13 | CCC[C@H]1C[C@H](O)[C@@]2(OC(=O)c3c2cc(OC)c(OC)c3O)O1 | inactive
14 | CCCC(=O)CC[C@H]1OC(=O)c2c1cc(O)c(OC)c2O | inactive
15 | COc1cc2c(c(O)c1OC)C(=O)O[C@@H]1C[C@H](C[C@@H](C)O)O[C@H]21 | inactive
16 | CCC[C@H]1C[C@H](O)[C@]2(OC(=O)c3c2cc(OC)c(OC)c3O)O1 | inactive
17 | CC[C@@H](O)[C@H]1C[C@H]2OC(=O)c3c(cc(OC)c(OC)c3O)[C@H]2O1 | inactive
18 | COc1cc2c(c(O)c1OC)C(=O)O[C@@H]1C[C@H](CCCO)O[C@H]21 | inactive
19 | COC(=O)CCCc1c(OC)cc(=O)oc1C | inactive
20 | CCCCC1=C(OC)C(=O)OC1(C)O (racemic) | inactive
21 | CCCCc1c(OC)cc(=O)oc1CO | inactive
22 | CCC[C@H]1C[C@H]2OC(=O)c3c(cc(OC)c(O)c3O)[C@H]2O1 | inactive
